Test results: patent US8461175B2, “1-pyrazolo[4,3-c]isoquinoline derivatives, preparation thereof and therapeutic use thereof” (Sanofi-Aventis, priority 2009, dated 2013)

Tested on: HeLa Cells (ATCC CCL-2)
Test: Determination of IC50 for HeLa cells, proliferation by 14C-thymidine incorporation
Type: cell-based
Conditions: Homo sapiens, total treatment 96 h
Method: Determination of IC50 for HeLa Cells (ATCC CCL-2)
This test is carried out using adherent tumour cell lines. Their proliferation is measured via the amount of ^14C-thymidine incorporated within the cells. These cells are placed in 96-well Cytostar plates with the culture medium and are incubated for 4 h at 37° C.-5% CO2. The products under test are then added and the plates are replaced in the incubator. ^14C-thymidine is added to the medium after 72 h of treatment and the cells are then incubated for 24 h. The incorporation of ^14C-thymidine is measured using a MicroBeta reader (Perkin Elmer) after these 24 h of “pulse”. The total time of treatment of the cells with the product under test is 96 h.
For each assay, the plates are prepared at the cell concentrations employed. The products are tested at 10 concentrations in duplicate. The first concentration is usually 10 μM, but it may vary, as may the degree of dilution, depending on the activity level of the products. The serial dilutions are made in pure DMSO and then each concentration is diluted in the culture medium. All of the products are tested in two independent assays.
• Dulbecco (Gibco 11960-044) • Inactivated foetal calf serum (FCS) (Gibco 10500-056) • Penicillin-Streptomycin-Glutamine (PSG) (Gibco 10378-016) • 96-well Cytostar plate (Amersham RPNQ0162) • DMSO (Sigma D2650) • ^14C-Thymidine (NEN NEC-568)

IC50 [nM] | Structure (SMILES)
259 | CS(=O)(=O)N1CCC(Nc2n[nH]c3c2nc(-c2c(F)cccc2F)c2cc(C(N)=O)ccc23)CC1 [Example 1, 5-(2,6-difluorophenyl)-3-{[1-(methylsulphonyl)piperidin-4-yl]amino}-1H-pyrazolo[4,3-c]isoquinoline-7-carboxamide]
100 | CS(=O)(=O)N1CCC(Nc2n[nH]c3c2nc(-c2c(F)cccc2F)c2cc(C=NO)ccc23)CC1 [Example 2, 5-(2,6-difluorophenyl)-3-{[1-(methylsulphonyl)piperidin-4-yl]amino}-1H-pyrazolo[4,3-c]isoquinoline-7-carbaldehyde oxime]
789 | NC(=O)c1ccc2c(c1)c(-c1c(F)cccc1F)nc1c(NC3CCN(S(=O)(=O)C(F)(F)F)CC3)n[nH]c12 [Example 4, 5-(2,6-difluorophenyl)-3-{[1-(trifluoromethanesulphonyl)piperidin-4-yl]amino}-1H-pyrazolo[4,3-c]isoquinoline-7-carboxamide]
2580 | C=Cc1ccc2c(c1)c(-c1c(F)cccc1F)nc1c(NC3CCN(S(C)(=O)=O)CC3)n[nH]c12 [Example 5, 5-(2,6-difluorophenyl)-3-{[1-(methylsulphonyl)piperidin-4-yl]amino}-7-vinyl-1H-pyrazolo[4,3-c]isoquinoline]
890 | CS(=O)(=O)N1CCC(Nc2n[nH]c3c2nc(-c2c(F)cccc2F)c2cc(F)ccc23)CC1 [Example 6, 5-(2,6-difluorophenyl)-7-fluoro-3-{[1-(methylsulphonyl)piperidin-4-yl]amino}-1H-pyrazolo[4,3-c]isoquinoline]
1500 | C#Cc1ccc2c(c1)c(-c1c(F)cccc1F)nc1c(NC3CCN(S(C)(=O)=O)CC3)n[nH]c12 [Example 7, 5-(2,6-difluorophenyl)-3-{[1-(methylsulphonyl)piperidin-4-yl]amino}-7-ethynyl-1H-pyrazolo[4,3-c]isoquinoline]
7280 | COC(=O)c1ccc2c(c1)c(-c1c(F)cccc1F)nc1c(NC3CCN(S(C)(=O)=O)CC3)n[nH]c12 [Example 8, Methyl 5-(2,6-difluorophenyl)-3-{[1-(methylsulphonyl)piperidin-4-yl]amino}-1H-pyrazolo[4,3-c]isoquinoline-7-carboxylate]
597 | CS(=O)(=O)N1CCC(Nc2n[nH]c3c2nc(-c2c(F)cccc2F)c2cc(C(N)=S)ccc23)CC1 [Example 9, 5-(2,6-difluorophenyl)-3-{[1-(methylsulphonyl)piperidin-4-yl]amino}-1H-pyrazolo[4,3-c]isoquinoline-7-carbothioamide]
909 | N#Cc1ccc2c(c1)c(-c1c(F)cccc1F)nc1c(NC3CCN(S(=O)(=O)C4CC4)CC3)n[nH]c12 [Example 11, 5-(2,6-difluorophenyl)-3-{[1-(cyclopropylsulphonyl)piperidin-4-yl]amino}-1H-pyrazolo[4,3-c]isoquinoline-7-carbonitrile]
899 | CS(=O)(=O)N1CCC(Nc2n[nH]c3c2nc(-c2c(F)cccc2F)c2cc(C#N)ccc23)CC1 [Example 12, 5-(2,6-difluorophenyl)-3-{[1-(methylsulphonyl)piperidin-4-yl]amino}-1H-pyrazolo[4,3-c]isoquinoline-7-carbonitrile]
954 | CCS(=O)(=O)N1CCC(Nc2n[nH]c3c2nc(-c2c(F)cccc2F)c2cc(C#N)ccc23)CC1 [Example 13, 5-(2,6-difluorophenyl)-3-([1-(ethylsulphonyl)piperidin-4-yl]amino}-1H-pyrazolo[4,3-c]isoquinoline-7-carbonitrile]
413 | NC(=O)c1ccc2c(c1)c(-c1c(F)cccc1F)nc1c(NC3CCN(S(=O)(=O)C4CC4)CC3)n[nH]c12 [Example 14, 5-(2,6-difluorophenyl)-3-{[1-(cyclopropylsulphonyl)piperidin-4-yl]amino}-1H-pyrazolo[4,3-c]isoquinoline-7-carboxamide]
488 | CS(=O)(=O)N1CCC(Nc2n[nH]c3c2nc(-c2c(F)cccc2F)c2cc(C=O)ccc23)CC1 [Example 15, 5-(2,6-difluorophenyl)-3-{[1-(methylsulphonyl)piperidin-4-yl]amino}-1H-pyrazolo[4,3-c]isoquinoline-7-carbaldehyde]
2350 | CS(=O)(=O)N1CCC(Nc2n[nH]c3c2nc(-c2c(F)cccc2F)c2cc(C(=N)NO)ccc23)CC1 [Example 16, 5-(2,6-difluorophenyl)-N-hydroxy-3-{[1-(methylsulphonyl)piperidin-4-yl]amino}-1H-pyrazolo[4,3-c]isoquinoline-7-carboximidamide]
554 | CCS(=O)(=O)N1CCC(Nc2n[nH]c3c2nc(-c2c(F)cccc2F)c2cc(C(N)=O)ccc23)CC1 [Example 18, 5-(2,6-difluorophenyl)-3-{[1-(ethylsulphonyl)piperidin-4-yl]amino}-1H-pyrazolo[4,3-c]isoquinolin-7-carboxamide]
451 | CCS(=O)(=O)N1CCC(Nc2n[nH]c3c2nc(-c2c(F)cccc2F)c2cc(C=O)ccc23)CC1 [Example 19, 5-(2,6-difluorophenyl)-3-{[1-(ethylsulphonyl)piperidin-4-yl]amino}-1H-pyrazolo[4,3-c]isoquinoline-7-carbaldehyde]
138 | CCS(=O)(=O)N1CCC(Nc2n[nH]c3c2nc(-c2c(F)cccc2F)c2cc(C=NO)ccc23)CC1 [Example 20, 5-(2,6-difluorophenyl)-3-{[1-(ethylsulphonyl)piperidin-4-yl]amino}-1H-pyrazolo[4,3-c]isoquinoline-7-carbaldehyde oxime]
411 | NC(=O)c1ccc2c(c1)c(-c1c(F)cccc1F)nc1c(NC3CCN(S(N)(=O)=O)CC3)[nH]nc12 [Example 22, 5-(2,6-difluorophenyl)-3-[(1-sulphamoylpiperidin-4-yl)amino]-2H-pyrazolo[4,3-c]isoquinoline-7-carboxamide]
2120 | CS(=O)(=O)N1CCC(Nc2n[nH]c3c2nc(-c2c(F)cccc2F)c2cc(-c4cn[nH]c4)ccc23)CC1 [Example 24, 5-(2,6-difluorophenyl)-N-[1-(methylsulphonyl)piperidin-4-yl]-7-(1H-pyrazol-4-yl)-1H-pyrazolo[4,3-c]isoquinolin-3-amine]
2280 | CS(=O)(=O)N1CCC(Nc2n[nH]c3c2nc(-c2c(F)cccc2F)c2cc(-c4cn[nH]n4)ccc23)CC1 [Example 25, 5-(2,6-difluorophenyl)-N-[1-(methylsulphonyl)piperidin-4-yl]-7-(2H-1,2,3-triazol-4-yl)-1H-pyrazolo[4,3-c]isoquinolin-3-amine]
1660 | N#Cc1ccc2c(c1)c(-c1c(F)cccc1F)nc1c(NC3CCN(S(N)(=O)=O)CC3)n[nH]c12 [Example 26, 4-{[7-cyano-5-(2,6-difluorophenyl)-1H-pyrazolo[4,3-c]isoquinolin-3-yl]amino}piperidine-1-sulphonamide]
456 | NS(=O)(=O)N1CCC(Nc2n[nH]c3c2nc(-c2c(F)cccc2F)c2cc(CO)ccc23)CC1 [Example 27, 4-{[5-(2,6-difluorophenyl)-7-(hydroxymethyl)-1H-pyrazolo[4,3-c]isoquinolin-3-yl]amino}piperidine-1-sulphonamide]
230 | NS(=O)(=O)N1CCC(Nc2n[nH]c3c2nc(-c2c(F)cccc2F)c2cc(F)ccc23)CC1 [Example 28, 4-{[5-(2,6-difluorophenyl)-7-fluoro-1H-pyrazolo[4,3-c]isoquinolin-3-yl]amino}piperidine-1-sulphonamide]

Same assay, conditions: total treatment 96 h

Structure (SMILES) | IC50 [nM]
NS(=O)(=O)N1CCC(Nc2n[nH]c3c2nc(-c2c(F)cccc2F)c2cc(C=NO)ccc23)CC1 (mixture of isomers) [Example 23, 4-({5-(2,6-difluorophenyl)-7-[(E/Z)-(hydroxyimino)methyl]-1H-pyrazolo[4,3-c]isoquinolin-3-yl}amino)piperidine-1-sulphonamide] | 126
CS(=O)(=O)N1CCC(Nc2n[nH]c3c2nc(-c2c(F)cccc2F)c2cc(CO)ccc23)CC1 [Example 3] | 248
CS(=O)(=O)N1CCC(Nc2n[nH]c3c2nc(-c2c(F)cccc2F)c2ccccc23)CC1 [Example 10] | 2040
CS(=O)(=O)N1CCC(Nc2n[nH]c3c2nc(-c2c(F)cccc2F)c2cc(CF)ccc23)CC1 [Example 17] | 263
CCS(=O)(=O)N1CCC(Nc2n[nH]c3c2nc(-c2c(F)cccc2F)c2cc(CO)ccc23)CC1 [Example 21] | 338
